# Measurements published in ChEMBL document CHEMBL1201862, “PubChem BioAssay data set” (2004).
#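 Briefly, cells in 96-well plates were exposed to five compound concentrations for 48 h, and endpoints were estimated by linear interpolation. At the GI50, growth is halved.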 Activity calls are given as the source filed them. Cut-off read from the data, not from the text of the source: active = GI50 up to about 1.1 µM and inactive = higher.
# What was measured:
# Assay in all cases: NCI anticancer screen, dose series, 48 h
# EKVX = system: EKVX
# HCC 2998 = system: HCC 2998
# HCT-15 = system: HCT-15
# Hs-578T = system: Hs-578T
# MDA-MB-231 = system: MDA-MB-231
# NCI-H460 = system: NCI-H460
# NCI-H522 = system: NCI-H522
# OVCAR-3 = system: OVCAR-3
# OVCAR-8 = system: OVCAR-8
# PC-3 = system: PC-3
# SF-268 = system: SF-268
# SK-MEL-28 = system: SK-MEL-28
# SK-MEL-2 = system: SK-MEL-2
# SK-MEL-5 = system: SK-MEL-5
# SN12C = system: SN12C
# T47D = system: T47D
# UACC-62 = system: UACC-62
# UO-31 = system: UO-31
# SF-539 = system: SF-539
# SNB-75 = system: SNB-75
Compound,GI50 (EKVX),GI50 (HCC 2998),GI50 (HCT-15),GI50 (Hs-578T),GI50 (MDA-MB-231),GI50 (NCI-H460),GI50 (NCI-H522),GI50 (OVCAR-3),GI50 (OVCAR-8),GI50 (PC-3),GI50 (SF-268),GI50 (SK-MEL-28),GI50 (SK-MEL-2),GI50 (SK-MEL-5),GI50 (SN12C),GI50 (T47D),GI50 (UACC-62),GI50 (UO-31),GI50 (SF-539),GI50 (SNB-75)
O=C(O)CC(C(=O)O)C1c2ccccc2-c2ccccc21 (stereo unspecified),> 100 µM (inactive),> 100 µM (inactive),> 100 µM,> 100 µM (inactive),> 100 µM (inactive),33.6 µM (inactive),47.9 µM (inactive),35.5 µM (inactive),67 µM (inactive),> 100 µM (inactive),79.6 µM (inactive),> 100 µM (inactive),> 100 µM (inactive),> 100 µM (inactive),> 100 µM (inactive),20.2 µM (inactive),> 100 µM (inactive),> 100 µM (inactive),,
Nc1ncnc2c1ncn2[C@@H]1O[C@H](C(=O)O)[C@@H](O)[C@H]1O [5'-CARBOXY ADENOSINE],> 100 µM (inactive),,> 100 µM,> 100 µM (inactive),> 100 µM (inactive),> 100 µM (inactive),> 100 µM (inactive),> 100 µM (inactive),> 100 µM (inactive),> 100 µM (inactive),> 100 µM (inactive),> 100 µM (inactive),> 100 µM (inactive),> 100 µM (inactive),> 100 µM (inactive),> 100 µM (inactive),> 100 µM (inactive),> 100 µM (inactive),> 100 µM (inactive),> 100 µM (inactive)
Nc1nc(NCC2(CO)CC(CCc3ccccc3)C2)cc(=O)[nH]1 (stereo unspecified),> 100 µM (inactive),> 100 µM (inactive),> 100 µM,> 100 µM (inactive),> 100 µM (inactive),> 100 µM (inactive),> 100 µM (inactive),> 100 µM (inactive),> 100 µM (inactive),> 100 µM (inactive),> 100 µM (inactive),> 100 µM (inactive),> 100 µM (inactive),> 100 µM (inactive),> 100 µM (inactive),27.8 µM (inactive),> 100 µM (inactive),18.2 µM (inactive),,> 100 µM (inactive)
OCC1OC(NC(=S)NCSCCC(F)(F)C(F)(F)C(F)(F)C(F)(F)C(F)(F)C(F)(F)F)C(O)C(O)C1O (stereo unspecified),,43.8 µM (inactive),72.6 µM,33.5 µM (inactive),> 100 µM (inactive),34 µM (inactive),,86.9 µM (inactive),,33.6 µM (inactive),15.2 µM (inactive),5.77 µM (inactive),51.6 µM (inactive),> 10 µM (inactive),60 µM (inactive),> 100 µM (inactive),32.7 µM (inactive),> 100 µM (inactive),16.6 µM (inactive),96.4 µM (inactive)
O=[N+]([O-])c1cccc(Cl)c1Oc1ccc(S(=O)(=O)N/C(=N\O)Nc2ccc(Cl)cc2)cc1,12.2 µM (inactive),10.8 µM (inactive),15 µM,5.79 µM (inactive),17.7 µM (inactive),12.8 µM (inactive),4.74 µM (inactive),10.3 µM (inactive),16.3 µM (inactive),11.5 µM (inactive),9.1 µM (inactive),15.1 µM (inactive),13 µM (inactive),11.9 µM (inactive),12.3 µM (inactive),5.97 µM (inactive),12.7 µM (inactive),9.1 µM (inactive),14.6 µM (inactive),
C[n+]1c(/C=C/c2ccc(/C=N/NC(=O)c3ccc(C(=O)N/N=C/c4ccc(/C=C/c5cn6ccccc6[n+]5C)cc4)cc3)cc2)cn2ccccc21,> 100 µM (inactive),> 100 µM (inactive),> 100 µM,> 100 µM (inactive),> 100 µM (inactive),> 100 µM (inactive),,> 100 µM (inactive),> 100 µM (inactive),> 100 µM (inactive),> 100 µM (inactive),> 100 µM (inactive),,1.89 µM (inactive),> 100 µM (inactive),> 100 µM (inactive),,> 100 µM (inactive),> 100 µM (inactive),> 100 µM (inactive)
COc1ccc(N2C=Nn3c(nc4sc5c(c4c3=O)CCCC5)C2)cc1,73.6 µM (inactive),47.8 µM (inactive),> 100 µM,3.02 µM (inactive),6.37 µM (inactive),86.9 µM (inactive),16.3 µM (inactive),> 100 µM (inactive),51.4 µM (inactive),> 100 µM (inactive),19.2 µM (inactive),> 100 µM (inactive),21.3 µM (inactive),> 100 µM (inactive),> 100 µM (inactive),> 100 µM (inactive),12.2 µM (inactive),> 100 µM (inactive),,8.77 µM (inactive)
CCC(C)(O)c1cnc(CC(C)C)c(=O)n1O (stereo unspecified),49.4 µM (inactive),40.7 µM (inactive),38 µM,80.7 µM (inactive),43.3 µM (inactive),28.1 µM (inactive),,33.8 µM (inactive),34 µM (inactive),48.3 µM (inactive),36.8 µM (inactive),63.5 µM (inactive),57.3 µM (inactive),88.1 µM (inactive),35.1 µM (inactive),59.4 µM (inactive),68.2 µM (inactive),40.1 µM (inactive),,31.6 µM (inactive)
